In brackets after ≈: the same amount, converted by molar mass. Bounds are passed on as bounds.

For the data set the following is noted: buffer; pH 7.4; 200.0 µM.
Regarding `CCN(CC)c1ccc(S(=O)(=O)N2CCOCC2)cc1NC(=O)Nc1ccccc1`, the kinetic solubility is 2.2 µg/mL (≈ 5.09 µM).
Next, `Cc1ccc(NC(=O)CCCC2CCCCC2)c(O)c1`: less than 0.6 µg/mL; `CCOC(=O)c1ccc(NC(=O)CN2C(=O)CN(C(C)=O)C2=S)cc1`: 51.8 µg/mL (≈ 143 µM); `CC(=O)Nc1ccc(Nc2ccc([N+](=O)[O-])cn2)cc1`: 15.8 µg/mL (≈ 58 µM).
Then `O=C(NCCCCc1ccccc1)Nc1cccc(F)c1`, with 8.2 µg/mL (≈ 28.6 µM).
Next, `Cc1nc2ccc(Nc3ccncc3)cc2s1`: 34.2 µg/mL (≈ 142 µM).
For the compound `CSc1ncc(Cl)c(C(=O)Nc2ccc(C)c(C)c2)n1`, the solubility (kinetic) is 0.7 µg/mL (≈ 2.27 µM).
Next, `CCCCc1ccc(NC(=O)C2CCCC2)cc1`: 1.9 µg/mL (≈ 7.74 µM); `Cc1ccc(C(=O)CCC(=O)NC2=NCCS2)cc1`: 10.8 µg/mL (≈ 39.1 µM); `C=CCn1c(=S)[nH]c2sc3c(c2c1=O)CCCC3`: 14.7 µg/mL (≈ 52.8 µM).
Next, `CCSc1nsc(NC(=O)Nc2ccccc2OC)n1`: 2.6 µg/mL (≈ 8.38 µM).
Then `COc1cc(C(=O)OC2CCOC2=O)c([N+](=O)[O-])cc1OC` (configuration not stated), with more than 46.7 µg/mL; and `CC1CN(S(=O)(=O)c2cccc(C(=O)OCC(=O)N3CCCCCC3)c2)CC(C)O1` (configuration not stated), with 12.9 µg/mL (≈ 29.4 µM); and `O=C(NC1CCCC1)C1CCN(C(=O)c2ccccc2Cl)CC1`, with more than 50.2 µg/mL.
`CCCCOC(=O)CSc1nc2ccccc2o1`: the kinetic solubility was determined as 5.4 µg/mL (≈ 20.4 µM).
Then `O=C(CN1C(=O)NC2(CCCCCC2)C1=O)NCc1ccc(Cl)cc1`, with 23.5 µg/mL (≈ 64.6 µM); and `O=C(Nc1ccsc1C(=O)O)c1ccccc1Cl`, with more than 42.3 µg/mL; and `O=C1CN(c2ccc(F)cc2)C(=S)N1c1ccccc1`, with 8.5 µg/mL (≈ 29.7 µM).
Next, `O=C(NCc1cccc(C(F)(F)F)c1)N1CCN(C(=O)c2ccccc2)CC1`: more than 58.7 µg/mL.
Next, `CN(C)c1nc(=S)nc(NCc2ccccc2)[nH]1`: more than 39.2 µg/mL; `Oc1c(C=Nc2cccc3nsnc23)ccc2ccccc12`: 19.3 µg/mL (≈ 63.2 µM).
In turn, `Cc1ccc(N2C(=NC(=O)c3ccccc3)SC3CS(=O)(=O)CC32)cc1` (configuration not stated) displayed a kinetic solubility of less than 0.4 µg/mL.
For the compound `O=C(NC(=S)Nc1ccc(O)cc1)C1CCCC1`, the solubility (kinetic) is more than 39.7 µg/mL.
`CC(C)(C)c1ccc(OCC(=O)NCCN2CCOCC2)cc1.Cl` registered a kinetic solubility of 53 µg/mL.
Then `CSc1ncccc1C(=O)Nc1cccc(S(=O)(=O)N2CCCC2)c1`, with more than 56.6 µg/mL.
With `COc1ccc(CCNC(=O)COC(=O)c2ccc(S(=O)(=O)N3CCCC3)cc2)cc1OC`, the kinetic solubility came to 7.2 µg/mL (≈ 15.1 µM).
Next, `CCN(CC)c1ccc2c(O)cc(=O)oc2c1`: more than 35 µg/mL.
Then `COc1ccc(-c2nc(=S)n3ccsc3n2)cc1OC`, with 4.4 µg/mL (≈ 14.4 µM); and `O=C1NC(=O)/C(=C/c2ccc(-c3cc(C(=O)O)ccc3Cl)o2)S1`, with more than 52.5 µg/mL.
In turn, `O=C(Nc1ccc2oc(=O)ccc2c1)c1ccc2ccccc2c1` returned a solubility (kinetic) of less than 0.7 µg/mL.
Take `COc1cc2[nH]c(C(=O)N3CCN(C)CC3)cc2c(OC)c1OC`: the solubility (kinetic) worked out at 33.8 µg/mL (≈ 101 µM).
As to `CCCNC(=O)CSc1nnc(-c2ccc(F)cc2)o1`, the solubility (kinetic) is more than 44.3 µg/mL.
Next, `O=S(=O)(c1ccc(NCCCO)nc1)N1CCOCC1`: more than 45.2 µg/mL; `CN(C)C(=S)Nc1ccc(Cc2ccncc2)cc1`: 36.5 µg/mL (≈ 134 µM).
As to `O=C(CN1C(=O)NC2(CCCC2)C1=O)Nc1ccccc1N1CCCC1`, the solubility (kinetic) amounted to 46.4 µg/mL (≈ 130 µM). This solubility kinetic and that of the compound before are within 1.5-fold of each other.
Then `CCOc1ccc(S(=O)(=O)/N=C(\N)c2ccccc2)cc1`, with more than 45.7 µg/mL; and `O=C(O)c1cccc(S(=O)(=O)Nc2ccc3c(c2)CCC3)c1`, with more than 47.6 µg/mL.
For `COc1ccc(OC)c(N=Cc2c(O)c3ccccc3oc2=O)c1`, the kinetic solubility is 3.6 µg/mL (≈ 11.1 µM).
Then `CSc1ccccc1C(=O)Nc1c(C)cccc1C`, with 22.9 µg/mL (≈ 84.4 µM); and `N#C/C(=C\c1ccc[nH]1)C(=O)NCC1CCCO1` (configuration not stated), with more than 36.8 µg/mL; and `CCOC(=O)Cc1csc(NC(=O)COc2cccc(C)c2)n1`, with 8.4 µg/mL (≈ 25.1 µM).
In turn, `COc1cccc(/C=C/C(=O)NCc2ccc(S(N)(=O)=O)cc2)c1` gave a solubility (kinetic) of 12.7 µg/mL (≈ 36.7 µM).
Next, `O=C(NC1=NCCS1)c1cccc(F)c1`: more than 33.6 µg/mL.
Then `CN(c1cccc(NS(=O)(=O)c2ccccc2)c1)S(C)(=O)=O`, with more than 51.1 µg/mL.
Then `N#Cc1nc(-c2cccc3ccccc23)oc1NCC1CCCO1` (configuration not stated), with 3.3 µg/mL (≈ 10.3 µM); and `O=C(CSc1cccc[n+]1[O-])Nc1ccc(Br)cc1Br`, with 6.7 µg/mL (≈ 16 µM).
For `CCOP(=O)(OCC)/C(=N/OC(=O)c1ccc(OC)cc1)C(N)=O`, the solubility (kinetic) is more than 53.7 µg/mL.
Then `CCOc1ccccc1NC(=O)Nc1ccc2c(c1)OCO2`, with 2.8 µg/mL (≈ 9.32 µM); and `NS(=O)(=O)c1ccc(CNC(=O)c2cnccn2)cc1`, with more than 43.8 µg/mL.
Turning to `CC(C)c1ccc(/C=C/C(=O)N2CCOCC2)cc1`, the kinetic solubility turned out to be 36.3 µg/mL (≈ 140 µM).
Then `CN(CC(=O)Nc1ccc(Cl)cc1)C(=O)CCC1CCCC1`, with 0.4 µg/mL (≈ 1.24 µM); and `Cc1cccc(OCCNC(=O)CCc2ccccc2)c1`, with 34.4 µg/mL (≈ 121 µM).

In general, kinetic solubility refers to the concentration staying in solution when a stock, usually in DMSO, is diluted into the medium.

The record behind these values is PubChem BioAssay AID1996.
